This note sets out measurements from patent US7309491B2, “Heat shock protein-based vaccines and immunotherapies” (priority 2003, dated 2007).

Values joined by “and” are separate entries in the source; they are usually repeats but may differ in a detail not shown here. Equal entries are not always repeated. Where two headings read alike, the source gives them in different places.

One experiment relates to B3Z cells. The experiment in a line: in-vitro antigen presentation assay (IL-2 produced by B3Z cells). It counts as cell-based. An excerpt: The in-vitro antigen presentation assay described above was utilized further in order to evaluate the formulations of the invention.
The subject of experiment [1] is SIINFEKL-pulsed target cells. On the set-up: species or system mice. The conditions noted are these: mouse, in vivo.
The next experiment has as its system CD8+ T cells. The format is in vivo, B6 mice.
Experiment [2] concerns modified to express ovalbumin (E.G7). Further details: species or system B6 mice. The conditions noted are these: mouse, in vivo.
[3] abbreviates: Ex. 17 prime-boost, doses as E100.

Regarding SIINFEKL [reference compound], the “Pg/ml IL-2 produced by B3Z cells” value in the experiment with B3Z cells (Ex. 12 (200-MF-41), 0.5 ng SIINFEKL, 5 ng […], 1.4 ug hsp70) worked out at 2690 ± 369 pg/mL. The “CTL % killing at 200:1 E/T” value in experiment [1] came to 6%. Further, the “Number of spots per 400,000 cells: SIINFEKL (SEQ ID NO:868)” value in the experiment on CD8+ T cells (Ex. 8 (200-17), B6 mice, no added hsp70, 10 μg SIINFEKL or 0.5 μg […]) is listed as 2.33 ± 0.41 spots per 400,000 cells. For the same sequence, in the experiment with CD8+ T cells (Ex. 8 (200-17), doses as E40), the “Number of Spots per 400,000 cells: Con A positive control” value is on record as 928 ± 72 spots per 400,000 cells, the “Number of Spots per 400,000 cells: Medium control” value is on record as 0.33 ± 0.41 spots per 400,000 cells, the “Number of Spots per 400,000 cells: Unpulsed control” value was 1.33 ± 0.82 spots per 400,000 cells and the “Number of spots per 400,000 cells: VSV control” value is reported as 1.7 ± 0.41 spots per 400,000 cells. In the experiment on CD8+ T cells (Ex. 9 (VSV-72-02), doses as E55), the “Number of spots per 400,000 cells: VSV control” value is listed as 1.0 ± 1.0 spots per 400,000 cells. Moreover, in the experiment with CD8+ T cells (Ex. 17 prime-boost, 2 μg hsp70, 2 μg hsp70 with 4 μg SIINFEKL or 4 μg hybrid antigen, 2 μg hybrid antigen alone, SIINFEKL dose not given), the “number of spots per 400,000 cells; immunized day 0, analyzed day 7” value is recorded as 3.0 ± 2.0 spots per 400,000 cells. Further, in the experiment on CD8+ T cells (setting [3]), the “number of spots per 400,000 cells; immunized day 0, analyzed day 21” value is 0.0 ± 1.0 spots per 400,000 cells; the “number of spots per 400,000 cells; immunized day 0, analyzed day 28” value is listed as 1.0 ± 1.0 spots per 400,000 cells; the “number of spots per 400,000 cells; immunized days 0, 7, analyzed day 21” value is given as 2.0 ± 1.0 spots per 400,000 cells; the “number of spots per 400,000 cells; immunized days 0, 14, analyzed day 28” value is recorded as 1.0 ± 1.0 spots per 400,000 cells. Further, in the experiment with CD8+ T cells (mouse, in vivo), the “Number of Spots per 400,000 cells: Con A positive control” value is given as 478 ± 67 spots per 400,000 cells, the “Number of Spots per 400,000 cells: Medium control” value is recorded as 0.0 ± 0.0 spots per 400,000 cells, the “Number of Spots per 400,000 cells: Unpulsed control” value is reported as 0.0 ± 1.0 spots per 400,000 cells and the “Number of spots per 400,000 cells: SIINFEKL (SEQ ID NO:868)” value is on record as 1.0 ± 1.0 spots per 400,000 cells.
With “NLLRLTGWFFRKRTFSFQLI (SEQ ID NO:912) (Hybrid antigen)”, in the experiment with CD8+ T cells (mouse, in vivo), the “Number of Spots per 300,000 cells, Medium” value is 0.3 ± 0.4 Spots per 300,000 cells; the “Number of Spots per 300,000 cells, Response to Class I epitope when Class I and Class II hybrid antigen admixture is administered” value was 43 ± 7.6 Spots per 300,000 cells; the “Number of Spots per 300,000 cells, Response to Class I epitope when Class I hybrid antigen administered” value was 5.3 ± 1.5 Spots per 300,000 cells; the “Number of Spots per 300,000 cells, Splenocytes” value is recorded as 0 ± 0 Spots per 300,000 cells.
For the sequence NLLRLTGWFFRKSIINFEKL, the “Pg/ml IL-2 produced by B3Z cells” value in the experiment with B3Z cells stood at 46 ± 11 pg/mL. In addition, in experiment [1], the “CTL assay: % killing at 200:1 E/T” value amounted to 9.91 ± 5.57%. Moreover, in the experiment on CD8+ T cells (mouse, in vivo), the “Number of Spots per 4 × 10^5 CD8 T cells: Con A Positive control” value was 459 ± 149, the “Number of Spots per 4 × 10^5 CD8 T cells: Medium control” value amounted to 1.00 ± 1.00, the “Number of Spots per 4 × 10^5 CD8 T cells: SIINFEKL (SEQ ID NO:868)” value is on record as 151 ± 20.7 and the “Number of Spots per 4 × 10^5 CD8 T cells: Unpulsed control” value is listed as 1.67 ± 0.58. In the experiment on CD8+ T cells (mouse, in vivo), the “Number of Spots per 4 × 10^5 CD8 T cells: VSV control” value was found to be 0.00 ± 0.00, the “Number of Spots per 300,000 CD8 T cells: Con A positive control” value amounted to 688 ± 41.7, the “Number of Spots per 300,000 CD8 T cells: Medium control” value stood at 0.00 ± 0.00 and the “Number of Spots per 300,000 CD8 T cells: SIINFEKL (SEQ ID NO:868)” value came out at 211 ± 17.0. Moreover, in the experiment on CD8+ T cells (mouse, in vivo), the “Number of Spots per 300,000 CD8 T cells: Unpulsed control” value is given as 0.50 ± 0.71, the “Number of Spots per 300,000 CD8 T cells: VSV control” value is listed as 1.00 ± 0.00, the “Number of Spots per 300,000 cells: Medium” value amounted to 0 ± 0 and the “Number of Spots per 300,000 cells: Medium control” value is recorded as 0.67 ± 0.82. Further, in the experiment with CD8+ T cells (mouse, in vivo), the “Number of Spots per 300,000 cells: SIINFEKL (SEQ ID NO:868)” value stood at 109 ± 14, the “Number of Spots per 300,000 cells: Unpulsed Splenocytes” value was 3.0 ± 2.0, the “Number of Spots per 300,000 cells: Unpulsed control” value worked out at 0 ± 0 and the “Number of Spots per 300,000 cells: VSV control” value came out at 0.67 ± 0.82. In the experiment with CD8+ T cells (mouse, in vivo), the “Number of Spots per 400,000 cells: Con A positive control” value was 930 ± 23 spots per 400,000 cells and 1007 ± 17 spots per 400,000 cells and 906 ± 17 spots per 400,000 cells; the “Number of Spots per 400,000 cells: Medium control” value was 1.0 ± 1.7 spots per 400,000 cells and 2.0 ± 0.41 spots per 400,000 cells and 1.33 ± 0.41 spots per 400,000 cells; the “number of spots per 400,000 cells; immunized day 0, analyzed day 7” value is recorded as 72 ± 5.0 spots per 400,000 cells; the “number of spots per 400,000 cells; immunized day 0, analyzed day 21” value was 42 ± 7.0 spots per 400,000 cells. Further, in the experiment on CD8+ T cells (mouse, in vivo), the “number of spots per 400,000 cells; immunized day 0, analyzed day 28” value is given as 82 ± 11 spots per 400,000 cells; the “number of spots per 400,000 cells; immunized days 0, 7, analyzed day 21” value is 24 ± 6.0 spots per 400,000 cells; the “number of spots per 400,000 cells; immunized days 0, 14, analyzed day 28” value is 25 ± 9.0 spots per 400,000 cells. In addition, the “Number of Spots per 300,000 cells: SIINFEKL” value with CD8+ T cells (mouse, in vivo, sc) is reported as 11 ± 1.8. Also, the “number of mice with tumors after 31 days” value in experiment [2] is reported as “Three of 10”.
Consider “FFRKSIINFEKLFFRKRGYVYQGL [reference compound]”, for which, in the experiment with CD8+ T cells (mouse, in vivo), the “Number of Spots per 300,000 cells: Medium control” value stood at 1.7 ± 0.4, the “Number of Spots per 300,000 cells: RGYVYQGL (SEQ ID NO:879)” value came out at 31 ± 5.5 and the “Number of Spots per 300,000 cells: SIINFEKL (SEQ ID NO:868)” value was 8.3 ± 1.1.
Consider NLLRLTGWRKSIINFEKL, for which the “CTL % killing at 200:1 E/T” value in experiment [1] stood at 24%. Also, in the experiment with CD8+ T cells (mouse, in vivo), the “Number of Spots per 400,000 cells: Con A positive control” value is given as 842 ± 73 spots per 400,000 cells, the “Number of Spots per 400,000 cells: Medium control” value is reported as 1.0 ± 1.0 spots per 400,000 cells, the “Number of Spots per 400,000 cells: Unpulsed control” value is 1.0 ± 1.0 spots per 400,000 cells and the “Number of spots per 400,000 cells: SIINFEKL (SEQ ID NO:868)” value is recorded as 24 ± 1 spots per 400,000 cells. Further, the “Number of spots per 400,000 cells: VSV control” value in the experiment with CD8+ T cells (mouse, in vivo) is listed as 5.0 ± 3.0 spots per 400,000 cells.
In the case of “NLLRLTGWFFRKSSWDFITV (SEQ ID NO:911) (Hybrid antigen)”, in the experiment with CD8+ T cells (mouse, in vivo), the “Number of Spots per 300,000 cells, Medium” value was 0.7 ± 0.8 Spots per 300,000 cells; the “Number of Spots per 300,000 cells, Response to Class I epitope when Class I and Class II hybrid antigen admixture is administered” value is reported as 98 ± 5.8 Spots per 300,000 cells; the “Number of Spots per 300,000 cells, Response to Class I epitope when Class I hybrid antigen administered” value is reported as 18 ± 0.7 Spots per 300,000 cells; the “Number of Spots per 300,000 cells, Splenocytes” value is 0.7 ± 0.4 Spots per 300,000 cells.
In the same order, the values of “NLLRLTGWFFRKIAYFYPEL (SEQ ID NO:913) (Hybrid antigen)” are 0 ± 0 Spots per 300,000 cells, 73 ± 9.8 Spots per 300,000 cells, 11 ± 3 Spots per 300,000 cells and 0 ± 0 Spots per 300,000 cells.
